Experimental data reported in BindingDB's records for patent WO2022104348 (Janssen Pharmaceutica, 2022).

Molecular target: Mitogen-activated protein kinase kinase kinase 14 (Homo sapiens, UniProt Q99558)
Assay: Inhibition of auto-phosphorylation of recombinant human NF-kappaB-inducing kinase (NIK/MAP3K14) activity
Procedure: NIK/MAP3K14 auto-phosphorylation activity was measured using the AlphaScreen (ascreen) format (Perkin Elmer). All compound6 tested were dissolved in dimethyl sulfoxide (DMSO) and further dilutions were made in assay buffer. The final DMSO concentration was 0.7% (v/v) in assays. The assay buffer was 50 mM Tris pH 7.5 containing 1 mM EGTA (ethylene glycol tetraacetic acid), 1 mM DTT (dithiothreitol), 0.1 mM NasVCO4, 5 mM MgCE, and 0.01 % Tween 20. The assays were carried out in 384 well Proxiplates (Perkin Elmer). The incubations consisted of the compound, […] Adenosine-5'-triphosphate (ATP), and 1 nM NIK/MAP3K14. Incubations were initiated by the addition of GST-tagged NIK/MAP3K14 enzyme, carried out for 2 h at 25 °C and terminated by addition of stop buffer containing anti-phospho-IKK Ser176/180 antibody. Protein A Acceptor and Glutathione-Donor bead6 were added before reading using an EnVision Multilabel Plate Reader (Perkin Elmer). The signal obtained in the wells was normalized using high (full enzyme activity, 0.7% DMSO) and low controls (no enzyme activity, 0.7% DMSO, no ATP). IC50 s were determined by fitting a sigmoidal curve to % inhibition of control versus Log compound concentration.

Mitogen-activated protein kinase kinase kinase 14, sequence (Q99558 whole entry): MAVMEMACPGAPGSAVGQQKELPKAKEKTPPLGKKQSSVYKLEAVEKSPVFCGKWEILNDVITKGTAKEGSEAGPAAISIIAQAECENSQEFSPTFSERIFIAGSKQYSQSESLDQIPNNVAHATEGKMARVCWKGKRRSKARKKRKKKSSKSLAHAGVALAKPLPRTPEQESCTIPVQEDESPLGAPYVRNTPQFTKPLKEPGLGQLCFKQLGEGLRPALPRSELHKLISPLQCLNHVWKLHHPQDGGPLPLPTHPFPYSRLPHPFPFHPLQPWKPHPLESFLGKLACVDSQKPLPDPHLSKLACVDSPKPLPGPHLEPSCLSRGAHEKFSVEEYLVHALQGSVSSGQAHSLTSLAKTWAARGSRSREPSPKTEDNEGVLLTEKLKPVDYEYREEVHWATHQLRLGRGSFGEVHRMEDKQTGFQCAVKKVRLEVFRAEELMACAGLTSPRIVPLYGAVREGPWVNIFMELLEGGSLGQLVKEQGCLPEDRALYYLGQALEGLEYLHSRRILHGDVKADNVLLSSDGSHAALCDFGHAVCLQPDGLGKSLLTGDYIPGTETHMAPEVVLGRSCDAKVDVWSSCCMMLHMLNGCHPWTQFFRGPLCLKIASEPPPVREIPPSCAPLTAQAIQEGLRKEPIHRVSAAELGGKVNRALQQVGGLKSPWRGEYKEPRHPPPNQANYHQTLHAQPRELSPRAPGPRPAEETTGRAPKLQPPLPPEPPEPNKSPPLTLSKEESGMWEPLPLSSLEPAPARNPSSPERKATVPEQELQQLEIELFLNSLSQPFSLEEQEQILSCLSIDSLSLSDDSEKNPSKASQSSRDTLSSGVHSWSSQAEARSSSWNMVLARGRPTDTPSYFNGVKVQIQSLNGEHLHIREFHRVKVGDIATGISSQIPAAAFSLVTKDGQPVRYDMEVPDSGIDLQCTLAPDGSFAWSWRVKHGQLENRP

Row | SMILES | IC50 [nM]
1 | C[C@@]1(O)C[C@@](O)(c2cccc(-c3csc(-c4c[nH]c5ncccc45)n3)c2)c2ncccc21 [WO2022104348, Example 106] | > 500
2 | C[C@@]1(O)C[C@](O)(c2cccc(-c3csc(-c4c[nH]c5ncccc45)n3)c2)c2ncccc21 [WO2022104348, Example 107] | > 500
3 | CN1CC[C@@](O)(c2cccc(-n3ncc(-c4c[nH]c5ncccc45)n3)c2)C1=O [WO2022104348, Example 109] | < 100
4 | CN1CC[C@@](O)(c2cccc(-c3csc(-n4ccc5nc(N)ccc54)n3)c2)C1=O [WO2022104348, Example 112] | > 500
5 | CN1CC[C@@](O)(c2cccc(-c3ccc(-c4c[nH]c5ncccc45)o3)c2)C1=O [WO2022104348, Example 114] | < 100
6 | CN1CC[C@@](O)(c2cccc(-c3cc(-c4c[nH]c5ncccc45)co3)c2)C1=O [WO2022104348, Example 115] | > 500
7 | CN1CC[C@@](O)(c2cccc(-c3coc(-c4c[nH]c5ncccc45)n3)c2)C1=O [WO2022104348, Example 116] | < 100
8 | Cc1c(-c2c[nH]c3ncccc23)n[nH]c1-c1cccc([C@]2(O)CCN(C)C2=O)c1 [WO2022104348, Example 119] | > 500
9 | CN1CC[C@@](O)(c2cccc(-c3cnc(-c4c[nH]c5ncccc45)n3C)c2)C1=O [WO2022104348, Example 120] | > 500
10 | CN1CC[C@@](O)(c2cccc(-n3cnc(-c4c[nH]c5ncccc45)n3)c2)C1=O [WO2022104348, Example 121] | < 100
11 | CN1CC[C@@](O)(c2cccc(-n3ccc(-c4c[nH]c5ncccc45)n3)c2)C1=O [WO2022104348, Example 122] | < 100
12 | CN1CC[C@@](O)(c2cccc(-n3cc(-c4c[nH]c5ncccc45)nn3)c2)C1=O [WO2022104348, Example 123] | > 500
13 | CN1CC[C@@](O)(c2cccc(-n3cnc(-c4c[nH]c5ncccc45)c3)c2)C1=O [WO2022104348, Example 124] | > 500
14 | Cc1noc2c1CC[C@@]2(O)c1cccc(-c2csc(-c3c[nH]c4ncccc34)n2)c1 [WO2022104348, Example 126] | < 100
15 | CN1CC[C@@](O)(c2cccc(-c3nc(-c4ccnc5[nH]ccc45)cs3)c2)C1=O [WO2022104348, Example 127] | < 100
16 | CN1CC[C@@](O)(c2cccc(-c3nc(-c4cc(N)nc5[nH]ccc45)cs3)c2)C1=O [WO2022104348, Example 129] | > 500
17 | CN1CC[C@@](O)(c2cccc(-c3nc(-c4c(Cl)cnc5[nH]ccc45)cs3)c2)C1=O [WO2022104348, Example 130] | > 500
18 | CN1CC[C@@](O)(c2cccc(-c3nc(-c4cccc5[nH]ncc45)cs3)c2)C1=O [WO2022104348, Example 131] | > 500
